The values below come from patent publication US8436012B2, “Imidazopyridin-2-one derivatives” (Daiichi Sankyo Company, Limited, priority 2008, dated 2013).

One assay deals with WM-266-4 cells. Kind of assay: Cell Proliferation Inhibitory Test. Format: cell-based. The following applies: Homo sapiens, 72 h, cultured three days with test compound, MTT, read-out: 50% cell proliferation inhibitory activity (GI50 value). The procedure, abridged: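 Cells cultured overnight, then exposed to serially diluted compound for three days; cell amount read by MTT. GI50 solved from 100×[(T−T0)/(C−T0)]=50, with T0 the value at time of compound addition and C the untreated three-day control.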

In a further assay the target is T1, human mTOR (Homo sapiens, UniProt P42345).
T1 construct: the portion corresponding to 1362-2549aa at the C terminus of human mTOR; made in house
Kind of assay: mTOR Kinase Activity Inhibition Test. It counts as biochemical. As to conditions: His-tagged mTOR (1362C), biotinylated peptide substrate, ATP, 3 hours at room temperature, fluorescence resonance energy transfer 665 nm/620 nm; read-out: IC50 value of mTOR enzyme inhibitory activity. The procedure, abridged: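 Purified His-tagged human mTOR (1362–2549aa, from HEK293) was used with biotinylated peptide (8 μg/mL in enzyme solution) in HEPES pH 7.5 with 20 mM MnCl2. Compounds were diluted in 20 μM ATP solution, and the reaction ran 3 h at RT. Phospho-S6K(Thr389) HTRF was read as the 665/620 nm ratio, and IC50 came from % inhibition versus controls.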

T1 sequence (P42345 1362-2549): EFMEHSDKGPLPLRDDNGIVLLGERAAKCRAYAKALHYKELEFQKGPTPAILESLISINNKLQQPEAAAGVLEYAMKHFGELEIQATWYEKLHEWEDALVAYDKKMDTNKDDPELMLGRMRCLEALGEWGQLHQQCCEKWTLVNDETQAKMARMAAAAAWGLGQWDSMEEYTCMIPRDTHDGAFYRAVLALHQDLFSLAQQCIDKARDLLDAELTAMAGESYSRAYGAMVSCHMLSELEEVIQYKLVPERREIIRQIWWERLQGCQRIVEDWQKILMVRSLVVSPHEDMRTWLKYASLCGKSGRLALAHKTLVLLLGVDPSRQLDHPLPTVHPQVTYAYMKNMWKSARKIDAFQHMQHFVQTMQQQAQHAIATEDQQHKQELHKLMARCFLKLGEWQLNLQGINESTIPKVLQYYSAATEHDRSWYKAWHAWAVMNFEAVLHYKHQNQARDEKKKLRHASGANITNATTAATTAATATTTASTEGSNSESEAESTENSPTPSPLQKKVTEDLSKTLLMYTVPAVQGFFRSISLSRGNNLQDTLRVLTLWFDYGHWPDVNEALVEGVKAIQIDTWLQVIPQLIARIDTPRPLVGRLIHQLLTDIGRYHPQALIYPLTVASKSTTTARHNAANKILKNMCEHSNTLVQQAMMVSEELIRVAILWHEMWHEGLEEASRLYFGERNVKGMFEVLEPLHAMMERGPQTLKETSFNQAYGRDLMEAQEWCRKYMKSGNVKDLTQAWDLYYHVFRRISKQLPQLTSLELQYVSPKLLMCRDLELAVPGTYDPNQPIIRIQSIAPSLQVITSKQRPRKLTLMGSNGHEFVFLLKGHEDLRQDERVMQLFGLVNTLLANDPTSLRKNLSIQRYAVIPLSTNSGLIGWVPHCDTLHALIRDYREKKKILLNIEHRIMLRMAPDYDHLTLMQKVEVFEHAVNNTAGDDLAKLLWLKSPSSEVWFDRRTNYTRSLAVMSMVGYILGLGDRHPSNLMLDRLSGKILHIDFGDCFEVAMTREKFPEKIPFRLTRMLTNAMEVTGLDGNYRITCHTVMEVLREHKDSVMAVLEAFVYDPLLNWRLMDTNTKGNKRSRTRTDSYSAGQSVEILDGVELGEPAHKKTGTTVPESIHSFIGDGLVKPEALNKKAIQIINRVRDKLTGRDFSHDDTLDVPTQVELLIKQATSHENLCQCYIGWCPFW

The IC50 is the concentration at which inhibition is half-maximal. On to `O=c1[nH]c2ncc(-c3cnc4[nH]ccc4c3)cc2n1C[C@H]1COC[C@@H](O)C1` (racemic) [Example 65, 1-{[cis-5-Hydroxytetrahydro-2H-pyran-3-yl]methyl}-6-(1H-pyrrolo[2,3-b]pyridin-5-yl)-1,3-dihydro-2H-imidazo[4,5-b]pyridin-2-one], for which the GI50 in the assay with WM-266-4 cells was less than 3000 nM. Further, at human mTOR, the half-inhibitory concentration (IC50) is less than 50 nM.

`CO[C@@H]1COC[C@H](Cn2c(=O)[nH]c3ncc(-c4cnc5[nH]ccc5c4)cc32)C1` (racemic) [Example 67, 1-{[cis-5-Methoxytetrahydro-2H-pyran-3-yl]methyl}-6-(1H-pyrrolo[2,3-b]pyridin-5-yl)-1,3-dihydro-2H-imidazo[4,5-b]pyridin-2-one]: the GI50 with WM-266-4 cells is less than 3000 nM. Also, the IC50 at human mTOR is less than 50 nM.

Take `O=Cc1c[nH]c2ccc(-c3cnc4[nH]c(=O)n(CC5CCOCC5)c4c3)cc12` [Example 81, 5-[2-Oxo-1-(tetrahydro-2H-pyran-4-ylmethyl)-2,3-dihydro-1H-imidazo[4,5-b]pyridin-6-yl]-1H-indole-3-carbaldehyde]: in the assay with WM-266-4 cells, the GI50 is less than 3000 nM. Moreover, the 50% inhibitory concentration (IC50) on human mTOR is less than 50 nM.

Turning to `O=c1[nH]c2ncc(-c3cnc4[nH]ccc4c3)cc2n1CC1CCS(=O)(=O)CC1` [Example 97, 1-[(1,1-Dioxidotetrahydro-2H-thiopyran-4-yl)methyl]-6-(1H-pyrrolo[2,3-b]pyridin-5-yl)-1,3-dihydro-2H-imidazo[4,5-b]pyridin-2-one], the GI50 in the assay with WM-266-4 cells was in the range of 3000 to 25000 nM. For the same molecule, the IC50 at human mTOR was less than 50 nM.

For `CO[C@@H]1CCO[C@H](Cn2c(=O)[nH]c3ncc(-c4cnc5[nH]ccc5c4)cc32)C1` [Example 138, 2,6-Anhydro-1,3,5-trideoxy-4-O-methyl-1-[2-oxo-6-(1H-pyrrolo[2,3-b]pyridin-5-yl)-2,3-dihydro-1H-imidazo[4,5-b]pyridin-1-yl]-D-threo-hexitol], the GI50 with WM-266-4 cells was less than 3000 nM. Besides, the IC50 on human mTOR is less than 50 nM.

Turning to `Cc1c[nH]c2ncc(-c3cnc4[nH]c(=O)n(CC5CCOCC5)c4c3)cc12` [Example 37, 6-(3-Methyl-1H-pyrrolo[2,3-b]pyridin-5-yl)-1-(tetrahydro-2H-pyran-4ylmethyl)-1,3-dihydro-2H-imidazo[4,5-b]pyridin-2-one], the GI50 in the assay on WM-266-4 cells was less than 3000 nM. Moreover, the IC50 at human mTOR was less than 50 nM.

Regarding `CO[C@@H]1CC[C@H](Cn2c(=O)[nH]c3ncc(-c4cnc5[nH]ccc5c4C)cc32)OC1` [Example 146, 2,6-Anhydro-1,3,4-trideoxy-5-O-methyl-1-[6-(4-methyl-1H-pyrrolo[2,3-b]pyridin-5-yl)-2-oxo-2,3-dihydro-1H-imidazo[4,5-b]pyridin-1-yl]-L-threo-hexitol], the GI50 with WM-266-4 cells is less than 3000 nM. Besides, the IC50 on human mTOR is less than 50 nM.

As to `CO[C@@H]1CC[C@H](Cn2c(=O)[nH]c3ncc(-c4cnc5[nH]cc(C)c5c4C)cc32)OC1` [Example 147, 2,6-Anhydro-1,3,4-trideoxy-1-[6-(3,4-dimethyl-1H-pyrrolo[2,3-b]pyridin-5-yl)-2-oxo-2,3-dihydro-1H-imidazo[4,5-b]pyridin-1-yl]-5-O-methyl-L-threo-hexitol], in the assay on WM-266-4 cells, the GI50 was less than 3000 nM. In addition, at human mTOR, the IC50 was less than 50 nM.

As to `CC(=O)N1CCN(CCn2c(=O)[nH]c3ncc(-c4cnc5[nH]ccc5c4)cc32)CC1` [Example 59, 1-[2-(4-Acetylpiperazin-1-yl)ethyl]-6-(1H-pyrrolo[2,3-b]pyridin-5-yl)-1,3-dihydro-2H-imidazo[4,5-b]pyridin-2-one], in the assay with WM-266-4 cells, the GI50 lay within 3000 to 25000 nM. The IC50 on human mTOR is less than 50 nM.

Take `C[C@@H]1CN(CCn2c(=O)[nH]c3ncc(-c4cnc5[nH]ccc5c4)cc32)C[C@H](C)O1` [Example 53, 1-{2-[cis-2,6-Dimethylmorpholin-4-yl]ethyl}-6-(1H-pyrrolo[2,3-b]pyridin-5-yl)-1,3-dihydro-2H-imidazo[4,5-b]pyridin-2-one]: the GI50 in the assay on WM-266-4 cells was less than 3000 nM. In addition, the IC50 at human mTOR was less than 50 nM.

On to `Cc1c[nH]c2ncc(-c3cnc4[nH]c(=O)n(C[C@H]5CC[C@@H](O)CO5)c4c3)c(C)c12` [Example 144, 2,6-Anhydro-1,3,4-trideoxy-1-[6-(3,4-dimethyl-1H-pyrrolo[2,3-b]pyridin-5-yl)-2-oxo-2,3-dihydro-1H-imidazo[4,5-b]pyridin-1-yl]-L-threo-hexitol], for which the GI50 in the assay on WM-266-4 cells was less than 3000 nM. Also, the IC50 at human mTOR was less than 50 nM.

Regarding `CO[C@H]1CC[C@@H](Cn2c(=O)[nH]c3ncc(-c4cnc5[nH]ccc5c4)cc32)OC1` [Example 135, 2,6-Anhydro-1,3,4-trideoxy-5-O-methyl-1-[2-oxo-6-(1H-pyrrolo[2,3-b]pyridin-5-yl)-2,3-dihydro-1H-imidazo[4,5-b]pyridin-1-yl]-D-threo-hexitol], the GI50 with WM-266-4 cells is less than 3000 nM. Besides, the IC50 on human mTOR was less than 50 nM.

Take `CC1(Cn2c(=O)[nH]c3ncc(-c4cnc5[nH]ccc5c4)cc32)CCOCC1` [Example 25, 1-[(4-Methyltetrahydro-2H-pyran-4-yl)methyl]-6-(1H-pyrrolo[2,3-b]pyridin-5-yl)-1,3-dihydro-2H-imidazo[4,5-b]pyridin-2-one]: the GI50 with WM-266-4 cells was less than 3000 nM. In addition, on human mTOR, the IC50 was less than 50 nM.

Consider `Nc1c(-c2cnc3[nH]c(=O)n(C[C@H]4COCCO4)c3c2)cnc2[nH]ccc12` [Example 130, 6-(4-Amino-1H-pyrrolo[2,3-b]pyridin-5-yl)-1-[(2S)-1,4-dioxan-2-ylmethyl]-1,3-dihydro-2H-imidazo[4,5-b]pyridin-2-one], for which, in the assay with WM-266-4 cells, the GI50 was 3000 to 25000 nM. Also, the IC50 on human mTOR was less than 50 nM.

Turning to `Cc1c[nH]c2ncc(-c3cnc4[nH]c(=O)n(C[C@H]5C[C@@H](O)CCO5)c4c3)c(C)c12` [Example 150, 2,6-Anhydro-1,3,5-trideoxy-1-[6-(3,4-dimethyl-1H-pyrrolo[2,3-b]pyridin-5-yl)-2-oxo-2,3-dihydro-1H-imidazo[4,5-b]pyridin-1-yl]-L-threo-hexitol], the GI50 in the assay with WM-266-4 cells is less than 3000 nM. For the same molecule, the IC50 at human mTOR is less than 50 nM.

As for `COc1c[nH]c2ncc(-c3cnc4[nH]c(=O)n(C[C@H]5COCCO5)c4c3)cc12` [Example 134, 1-[(2S)-1,4-Dioxan-2-ylmethyl]-6-(3-methoxy-1H-pyrrolo[2,3-b]pyridin-5-yl)-1,3-dihydro-2H-imidazo[4,5-b]pyridin-2-one], in the assay with WM-266-4 cells, the GI50 is less than 3000 nM. Besides, at human mTOR, the concentration for half-maximal inhibition (IC50) was less than 50 nM.

For the molecule `Cc1c[nH]c2ncc(-c3cnc4[nH]c(=O)n(C[C@H]5COCCO5)c4c3)c(C)c12` [Example 124, 6-(3,4-Dimethyl-1H-pyrrolo[2,3-b]pyridin-5-yl)-1-[(2S)-1,4-dioxan-2-ylmethyl]-1,3-dihydro-2H-imidazo[4,5-b]pyridin-2-one], the GI50 in the assay on WM-266-4 cells is less than 3000 nM. In addition, the IC50 at human mTOR was less than 50 nM.

Turning to `O=c1[nH]c2ncc(-c3cnc4ccnn4c3)cc2n1CC1CCOCC1` [Example 73, 6-Pyrazolo[1,5-a]pyrimidin-6-yl-1-(tetrahydro-2H-pyran-4-ylmethyl)-1,3-dihydro-2H-imidazo[4,5-b]pyridin-2-one], in the assay with WM-266-4 cells, the GI50 lay within 3000 to 25000 nM. Also, the IC50 at human mTOR was 100 to 5000 nM.

As for `O=c1[nH]c2ncc(-c3ccc4[nH]ccc4c3)cc2n1CC1CC1` [Example 1, 1-(Cyclopropylmethyl)-6-(1H-indol-5-yl)-1,3-dihydro-2H-imidazo[4,5-b]pyridin-2-one], in the assay on WM-266-4 cells, the GI50 is less than 3000 nM. Besides, the IC50 at human mTOR is less than 50 nM.

On to `O=c1[nH]c2ncc(-c3cnc4ccccc4c3)cc2n1CC1CCOCC1` [Example 5, 6-Quinolin-3-yl-1-(tetrahydro-2H-pyran-4-ylmethyl)-1,3-dihydro-2H-imidazo[4,5-b]pyridin-2-one], for which the GI50 with WM-266-4 cells is less than 3000 nM. Further, the IC50 on human mTOR was less than 50 nM.

In the case of `O=c1[nH]c2ncc(-c3cnc4[nH]ccc4n3)cc2n1CC1CCOCC1` [Example 75, 6-(5H-Pyrrolo[2,3-b]pyrazin-2-yl)-1-(tetrahydro-2H-pyran-4-ylmethyl)-1,3-dihydro-2H-imidazo[4,5-b]pyridin-2-one], the GI50 in the assay with WM-266-4 cells was less than 3000 nM. The IC50 on human mTOR was in the range of 50 to 100 nM.

Consider `O=c1[nH]c2ncc(-c3cnc4[nH]ccc4c3)cc2n1CC1CCOC1` (centres unmarked) [Example 107, 6-(1H-Pyrrolo[2,3-b]pyridin-5-yl)-1-(tetrahydrofuran-3-ylmethyl)-1,3-dihydro-2H-imidazo[4,5-b]pyridin-2-one], for which the GI50 in the assay on WM-266-4 cells was less than 3000 nM. In addition, the IC50 on human mTOR is less than 50 nM.

For the molecule `O=c1[nH]c2ncc(-c3cc4cc[nH]c4cc3F)cc2n1CC1CCOCC1` [Example 28, 6-(6-Fluoro-1H-indol-5-yl)-1-(tetrahydro-2H-pyran-4-ylmethyl)-1,3-dihydro-2H-imidazo[4,5-b]pyridin-2-one], the GI50 in the assay on WM-266-4 cells is less than 3000 nM. For the same molecule, on human mTOR, the IC50 is less than 50 nM.

Consider `Cc1c(-c2cnc3[nH]c(=O)n(C[C@H]4COCCO4)c3c2)cnc2[nH]cc(F)c12` [Example 126, 1-[(2S)-1,4-Dioxan-2-ylmethyl]-6-(3-fluoro-4-methyl-1H-pyrrolo[2,3-b]pyridin-5-yl)-1,3-dihydro-2H-imidazo[4,5-b]pyridin-2-one], for which the GI50 in the assay with WM-266-4 cells was less than 3000 nM. The IC50 on human mTOR was less than 50 nM.

Turning to `Cc1nc2[nH]c(=O)n(C[C@H]3COCCO3)c2cc1-c1cnc2[nH]ccc2c1C` [Example 45, 1-[(2S)-1,4-Dioxan-2-ylmethyl]-5-methyl-6-(4-methyl-1H-pyrrolo[2,3-b]pyridin-5-yl)-1,3-dihydro-imidazo[4,5-b]pyridin-2-one], in the assay with WM-266-4 cells, the GI50 was less than 3000 nM. Also, the IC50 on human mTOR was less than 50 nM.
